This is an account of results in patent US10508077B2 (FORMA Therapeutics, Inc., priority 2015, dated 2019).

Broadly, the IC50 is the concentration that inhibits the measured activity by half.

In the assay the target is T1, Full length human recombinant HDAC8 protein (Homo sapiens, UniProt Q9BY41).
T1 construct: Full length human recombinant HDAC8 protein was expressed in baculoviral system; made in house
T1 sequence (Q9BY41 1-377): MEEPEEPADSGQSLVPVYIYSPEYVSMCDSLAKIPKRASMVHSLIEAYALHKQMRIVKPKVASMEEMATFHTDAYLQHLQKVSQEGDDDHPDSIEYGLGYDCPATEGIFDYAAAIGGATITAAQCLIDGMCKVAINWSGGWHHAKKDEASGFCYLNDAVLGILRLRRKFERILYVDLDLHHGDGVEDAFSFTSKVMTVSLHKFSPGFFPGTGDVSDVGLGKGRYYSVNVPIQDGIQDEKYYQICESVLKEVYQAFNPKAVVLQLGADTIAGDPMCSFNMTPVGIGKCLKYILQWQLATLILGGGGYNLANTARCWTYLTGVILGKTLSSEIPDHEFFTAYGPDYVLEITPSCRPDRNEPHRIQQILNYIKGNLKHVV
Kind of assay: In vitro histone deacetylase assay: enzymatic HDAC8 assay, electrophoretic mobility shift. The class given is biochemical. The conditions noted are these: substrate RHKK(Ac)-NH2, 1 nM enzyme, compounds listed under IC50 range headings. In a few lines: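 Readout was microfluidic mobility-shift separation of deacetylated product from fluorescent RHKK(Ac)-NH2 substrate (2 µM), after reaction with 1 nM recombinant full-length human HDAC8 at 25 °C, pH 7.5, stopped with SDS. Twelve 3-fold-spaced concentrations tested; product/sum ratios normalized to controls and fitted with a 4-parameter model for IC50.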
In general terms: Mobility shift assays separate free from complexed probe on a gel.
Turning to `O=C(/C=C/c1ccccc1N1CCN(Cc2nc3ccccc3s2)CC1)NO` [Example I-189, (E)-3-(2-(4-(benzo[d]thiazol-2-ylmethyl)piperazin-1-yl)phenyl)-N-hydroxyacrylamide], the IC50 is less than 1000 nM. On to `O=C(/C=C/c1ccccc1N1CCC(NCc2nccs2)CC1)NO` [Example I-190, (E)-N-hydroxy-3-(2-(4-((thiazol-2-ylmethyl)amino)piperidin-1-yl)phenyl)acrylamide], for which the 50% inhibitory concentration (IC50) is less than 1000 nM. As for `O=C(/C=C/c1ccccc1N1CCC(NCc2ccccc2OC(F)F)CC1)NO` [Example I-191, (E)-3-(2-(4-((2-(difluoromethoxy)benzyl)amino)piperidin-1-yl)phenyl)-N-hydroxyacrylamide], the IC50 is less than 1000 nM.

As for `O=C(/C=C/c1ccccc1N1CCC(NCc2nc3ccccc3s2)CC1)NO` [Example I-192, (E)-3-(2-(4-((benzo[d]thiazol-2-ylmethyl)amino)piperidin-1-yl)phenyl)-N-hydroxyacrylamide], the IC50 was less than 1000 nM. Consider `CC(=O)N1CCN(c2ccccc2/C=C/C(=O)NO)CC1` [Example I-193, (E)-3-(2-(4-actylpiperazin-1-yl)phenyl)-N-hydroxyacrylamide], for which the IC50 is less than 1000 nM.

Consider `CSCC(=O)N1CCN(c2ccccc2/C=C/C(=O)NO)CC1` [Example I-194, (E)-N-hydroxy-3-(2-(4-(2-(methylthio)acetyl)piper-azin-1-yl)phenyl)acrylamide], for which the IC50 was less than 1000 nM. As to `COc1ccc(CC(=O)N2CCN(c3ccccc3/C=C/C(=O)NO)CC2)cc1` [Example I-195, (E)-N-hydroxy-3-(2-(4-(2-(4-methoxyphenyl)acetyl)pi-perazin-1-yl)phenyl)acrylamide], the half-inhibitory concentration (IC50) is less than 1000 nM.

On to `O=C(/C=C/c1ccccc1N1CCN(C(=O)Cc2cccs2)CC1)NO` [Example I-196, (E)-N-hydroxy-3-(2-(4-(2-(thiophen-2-yl)acetyl)piperazin-1-yl)phenyl)acrylamide], for which the IC50 was less than 1000 nM. `CCSCC(=O)N1CCN(c2ccccc2/C=C/C(=O)NO)CC1` [Example I-197, (E)-3-(2-(4-(2-(ethylthio)acetyl)pipera-zin-1-yl)phenyl)-N-hydroxyacrylamide]: the IC50 was less than 1000 nM.

As to `Cc1cc(C(=O)N2CCN(c3ccccc3/C=C/C(=O)NO)CC2)n[nH]1` [Example I-198, (E)-N-hydroxy-3-(2-(4-(5-methyl-1H-pyrazole-3-carbonyl)piperazin-1-yl)phenyl)acrylamide], the IC50 was less than 1000 nM. For `Cn1cncc1C(=O)N1CCN(c2ccccc2/C=C/C(=O)NO)CC1` [Example I-199, (E)-N-hydroxy-3-(2-(4-(1-methyl-1H-imidazole-5-carbonyl)piperazin-1-yl)phenyl)acrylamide], the IC50 is less than 1000 nM. As to `CS(=O)(=O)CCCC(=O)N1CCN(c2ccccc2/C=C/C(=O)NO)CC1` [Example I-201, (E)-N-hydroxy-3-(2-(4-(4-(methylsulfonyl)butanoyl)piperazin-1-yl)phenyl)acrylamide], the half-inhibitory concentration (IC50) was less than 1000 nM. `O=C(/C=C/c1ccccc1N1CCN(C(=O)c2ccc(F)cn2)CC1)NO` [Example I-202, (E)-3-(2-(4-(5-fluoropicolinoyl)piperazin-1-yl)phenyl)-N-hydroxyacrylamide]: the IC50 is less than 1000 nM. Then `COc1cc(CC(=O)N2CCN(c3ccccc3/C=C/C(=O)NO)CC2)ccc1O` [Example I-203, (E)-N-hydroxy-3-(2-(4-(2-(4-hydroxy-3-methoxyphenyl)acetyl)piperazin-1-yl)phenyl)acrylamide], with less than 1000 nM; and `O=C(/C=C/c1ccccc1N1CCN(C(=O)C2CC(F)(F)C2)CC1)NO` [Example I-205, (E)-3-(2-(4-(3,3-difluorocyclobutane-1-carbonyl)piperazin-1-yl)phenyl)-N-hydroxyacrylamide], with less than 1000 nM; and `O=C(/C=C/c1ccccc1N1CCN(C(=O)c2ccc3c(c2)OCO3)CC1)NO` [Example I-207, (E)-3-(2-(4-(benzo[d][1,3]dioxole-5-carbonyl)piperazin-1-yl)phenyl)-N-hydroxyacrylamide], with less than 1000 nM. On to `CN1CCCC(C(=O)N2CCN(c3ccccc3/C=C/C(=O)NO)CC2)C1` (stereo not drawn) [Example I-209, (E)-N-hydroxy-3-(2-(4-(1-methylpiperidine-3-carbonyl)piperazin-1-yl)phenyl)acrylamide], for which the IC50 was less than 1000 nM. Consider `O=C(/C=C/c1ccccc1N1CCN(C(=O)Cc2ccc(Cl)cc2)CC1)NO` [Example I-210, (E)-3-(2-(4-(2-(4-chlorophenyl)acetyl)piper-azin-1-yl)phenyl)-N-hydroxyacrylamide], for which the IC50 was less than 1000 nM. Regarding `Cc1nc(CC(=O)N2CCN(c3ccccc3/C=C/C(=O)NO)CC2)c(C)s1` [Example I-211], the IC50 is less than 1000 nM. The same measure for `O=C(/C=C/c1ccccc1N1CCN(C(=O)c2ccc(OC(F)F)cc2)CC1)NO` [Example I-212, (E)-3-(2-(4-(4-(difluoromethoxy)benzoyl)piperazin-1-yl)phenyl)-N-hydroxyacrylamide]: less than 1000 nM; for `COc1ccc(C(=O)N2CCN(c3ccccc3/C=C/C(=O)NO)CC2)cc1F` [Example I-213]: less than 1000 nM; for `Cc1oc(-c2ccc(Cl)cc2)cc1C(=O)N1CCN(c2ccccc2/C=C/C(=O)NO)CC1` [Example I-214, (E)-3-(2-(4-(5-(4-chlorophenyl)-2-methylfuran-3-carbonyl)piperazin-1-yl)phenyl)-N-hydroxyacrylamide]: less than 1000 nM. As for `O=C(/C=C/c1ccccc1N1CCN(C(=O)c2ccc3[nH]nnc3c2)CC1)NO` [Example I-215, (E)-3-(2-(4-(1H-benzo[d][1,2,3]triazole-5-carbonyl)piperazin-1-yl)phenyl)-N-hydroxyacrylamide], the IC50 is less than 1000 nM. Consider `CC(C)N(Cc1cccc(C(F)(F)F)c1)c1ccccc1/C=C/C(=O)NO` [Example I-216, (E)-N-hydroxy-3-(2-(isopropyl(3-(trifluoromethyl)benzyl)amino)phenyl)acrylamide], for which the half-maximal inhibitory concentration (IC50) was less than 1000 nM. Consider `O=C(/C=C/c1cccnc1CNc1ccc(-c2ccccc2)c(C(F)(F)F)c1)NO` [Example I-217, (E)-N-hydroxy-3-(2-(((2-(trifluoromethyl)-[1,1′-biphenyl]-4-yl)amino)methyl)pyridin-3-yl)acrylamide], for which the IC50 was less than 1000 nM.

As to `Cc1nn(C)c(Cl)c1S(=O)(=O)NC1CCN(c2ccccc2/C=C/C(=O)NO)CC1` [Example I-218, (E)-3-(2-(4-((5-chloro-1,3-dimethyl-1H-pyrazole)-4-sulfonamido)piperidin-1-yl)phenyl)-N-hydroxyacrylamide], the IC50 was less than 1000 nM. Then `Cc1noc(C)c1S(=O)(=O)NC1CCN(c2ccccc2/C=C/C(=O)NO)CC1` [Example I-220, (E)-3-(2-(4-((3,5-dimethylisoxazole)-4-sulfonamido)piperidin-1-yl)phenyl)-N-hydroxyacrylamide], with less than 1000 nM.

Turning to `O=C(/C=C/c1ccccc1N1CCC(NS(=O)(=O)c2cccnc2)CC1)NO` [Example I-221, (E)-N-hydroxy-3-(2-(4-(pyridine-3-sulfonamido)piperidin-1-yl)phenyl)acrylamide], the IC50 is less than 1000 nM. Then `O=C(/C=C/c1ccccc1N1CCC(NS(=O)(=O)c2ccc(F)cc2)CC1)NO` [Example I-222, (E)-3-(2-(4-((4-fluorophenyl)sulfonamido)piperidin-1-yl)phenyl)-N-hydroxyacrylamide], with less than 1000 nM. In the case of `O=C(/C=C/c1ccccc1N1CCC(NS(=O)(=O)c2ccc(Cl)cc2)CC1)NO` [Example I-223, (E)-3-(2-(4-((4-chlorophenyl)sulfonamido)piperidin-1-yl)phenyl)-N-hydroxyacrylamide], the half-maximal inhibitory concentration (IC50) was less than 1000 nM. Turning to `O=C(/C=C/c1ccccc1N1CCC(NS(=O)(=O)c2ccc(C(F)(F)F)cc2)CC1)NO` [Example I-224, (E)-N-hydroxy-3-(2-(4-((4-(trifluoromethyl)phenyl)-sulfonamido)piperidin-1-yl)phenyl)acrylamide], the IC50 is less than 1000 nM. With `CC(C)c1ccc(S(=O)(=O)NC2CCN(c3ccccc3/C=C/C(=O)NO)CC2)cc1` [Example I-225, (E)-N-hydroxy-3-(2-(4-((4-isopropylphenyl)sulfon-amido)piperidin-1-yl)phenyl)acrylamide], the IC50 was less than 1000 nM. In the case of `O=C(/C=C/c1ccccc1N1CCC(NS(=O)(=O)c2ccc(C(F)(F)F)nc2)CC1)NO` [Example I-226, (E)-N-hydroxy-3-(2-(4-((6-(trifluoromethyl)pyridine)-3-sulfonamido)piperidin-1-yl)phenyl)acrylamide], the IC50 is less than 1000 nM. With `CCS(=O)(=O)NC1CCN(c2ccccc2/C=C/C(=O)NO)CC1` [Example I-227, (E)-3-(2-(4-(ethylsulfonamido)piperidin-1-yl)phenyl)-N-hydroxyacrylamide], the IC50 was less than 1000 nM. Consider `O=C(/C=C/c1ccccc1N1CCC(NS(=O)(=O)Cc2ccc(F)cc2)CC1)NO` [Example I-228, (E)-3-(2-(4-(((4-fluorophenyl)methyl)sul-fonamido)piperidin-1-yl)phenyl)-N-hydroxyacrylamide], for which the IC50 is less than 1000 nM. Regarding `O=C(/C=C/c1ccccc1N1CCC(NS(=O)(=O)Cc2cccc(Cl)c2)CC1)NO` [Example I-229, (E)-3-(2-(4-(((3-chlorophenyl)methyl)sul-fonamido)piperidin-1-yl)phenyl)-N-hydroxyacrylamide], the IC50 is less than 1000 nM.
